“Also recorded” adds a separate entry of the source.
Legend:
Recombinant human p38α = target: T1, Recombinant human p38α (Homo sapiens, UniProt Q16539); experiment: Time-resolved fluorescence resonance energy transfer (TR-FRET) kinase assay (standard or low volume); assay type: biochemical; details: no IC50 at a concentration of less than 16 uM
T1 construct: His; made in house
Method: Time-Resolved Fluorescence Resonance Energy Transfer Kinase Standard Assay
(§1) Recombinant human p38α was expressed as a His-tagged protein. To activate this protein, 3 μM unactivated p38α was incubated in 200 mM Hepes pH 7.4, 625 mM NaCl, 1 mM DTT with 27 nM active MKK6 (Upstate), 1 mM ATP and 10 mM MgCl2 The activity of the MKK6-activated p38α was assessed using a time-resolved fluorescence resonance energy transfer (TR-FRET) assay.
Biotinylated-GST-ATF2 (residues 19-96, 400 nM final), ATP ([…]) and MgCl2 (5 mM final) in assay buffer (40 mM HEPES pH 7.4, 1 mM DTT) were added to wells containing 1 ul of various concentrations of compound or DMSO vehicle (3% final) in NUNC 384 well black plate. […] The degree of phosphorylation of GST-ATF2 was measured using a Packard Discovery plate reader (Perkin-Elmer Life Sciences, Pangbourne, UK) as a ratio of specific 665 nm energy transfer signal to reference europium 620 nm signal.
Time-Resolved Fluorescence Resonance Energy Transfer Kinase Low Volume Assay
as §1, with “pH7.4,” for “pH 7.4,”, “assay. […]” for “assay.”

[1] = system: influx of neutrophils to the lung in LPS-challenged rats; experiment: Rat LPS neutrophilia model; assay type: in vivo; details: intratracheal, LPS aerosol 100 ug/ml, in at least one of the range of conditions tested, significance p<0.05
How it was run: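 Compound given intratracheally (200 ul suspension, or dry powder blend) to isoflurane-anesthetized rats 15 min–24 hours before 15 min exposure to LPS aerosol (100 ug/ml). Four hours later, bronchoalveolar lavage cells were counted differentially. Data are % inhibition of neutrophils versus no-compound controls at a given concentration and pretreat time.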

[2] = system: TNF-stimulated IL8 production by human neutrophils; experiment: TNF-stimulated IL-8 production from human neutrophils; details: read-out: IC50, TNF-stimulated IL-8 production from human neutrophils, broad range of data upon multiple runs
Method: The effect of test compounds on TNF-stimulated IL8 production by human neutrophils is measured as follows. Neutrophils are prepared from blood obtained from consenting donors, using standard methods. Blood is collected in heparinized syringes and layered over histopaque (30 ml/20 ml). Following centrifugation, the red cell pellet is resuspended in PBS and purified over a dextran gradient. Red blood cells are lysed with water for 40 sec, remaining granulocytes collected by centrifugation and resuspended at 1.5×10^6 cells/ml. Cells are added (0.5-1 ml) to 48 well plates already containing compound at 1000× final concentration in neat DMSO or 10% DMSO in RPMI1640 with 10% FBS. TNF (final concentration 100 ng/ml) is used as the stimulus. Cells incubated for approximately 20 hrs at 37° C., 5% CO2. Levels of IL-8 in the cell free supernatant are determined by sandwich ELISA, and inhibition relative to a control with DMPO but no compound is calculated.

T1 sequence (Q16539 whole entry): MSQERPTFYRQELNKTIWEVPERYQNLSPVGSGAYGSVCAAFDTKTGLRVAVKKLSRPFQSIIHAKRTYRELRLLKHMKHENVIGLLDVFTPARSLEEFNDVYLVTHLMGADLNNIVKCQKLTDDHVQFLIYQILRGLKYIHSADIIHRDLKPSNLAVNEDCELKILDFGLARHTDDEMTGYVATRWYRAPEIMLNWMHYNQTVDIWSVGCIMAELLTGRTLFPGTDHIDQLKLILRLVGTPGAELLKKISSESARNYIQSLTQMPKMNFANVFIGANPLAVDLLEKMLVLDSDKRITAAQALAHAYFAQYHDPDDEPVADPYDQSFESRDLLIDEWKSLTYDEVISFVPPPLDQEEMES

SMILES	pIC50, TR-FRET kinase assay (Recombinant human p38α)	inhibition of neutrophilia (neutrophil levels in airway lavage relative to no compound controls) [1]	IC50 [2] [nM]
CCN(CC)CCCNc1nc(-c2ccc(C(=O)O)cc2)c2ccc(=O)n(-c3c(F)cccc3F)c2n1 [Example 188(a), 4-[2-{[3-(diethylamino)propyl]amino}-8-(2,6-difluorophenyl)-7-oxo-7,8-dihydropyrido[2,3-d]pyrimidin-4-yl]benzoic acid]	less than 4.8		
CCN(CC)CCCNc1nc(-c2cc(C(=O)N(C)C)ccc2C)c2ccc(=O)n(-c3c(F)cccc3F)c2n1 [Example 120, 3-[2-{[3-(diethylamino)propyl]amino}-8-(2,6-difluorophenyl)-7-oxo-7,8-dihydropyrido[2,3-d]pyrimidin-4-yl]-N,N,4-trimethylbenzamide]		statistically nonsignificant inhibition of neutrophilia; also recorded: inactive	> 1
CCN(CC)CCCNc1nc(-c2cc(C(=O)NCC3CCCC3)ccc2C)c2ccc(=O)n(-c3c(F)cccc3F)c2n1 [Example 132, N-(cyclopentylmethyl)-3-[2-{[3-(diethylamino)propyl]amino}-8-(2,6-difluorophenyl)-7-oxo-7,8-dihydropyrido[2,3-d]pyrimidin-4-yl]-4-methylbenzamidetrifluoroacetate]		statistically nonsignificant inhibition of neutrophilia	
CCN(CC)CCCNc1nc(-c2cc(C(=O)Nc3ccc(F)cc3)ccc2C)c2ccc(=O)n(-c3c(F)cccc3F)c2n1 [Example 160, 3-[2-{[3-(diethylamino)propyl]amino}-8-(2,6-difluorophenyl)-7-oxo-7,8-dihydropyrido[2,3-d]pyrimidin-4-yl]-N-(4-fluorophenyl)-4-methylbenzamide]		statistically significant inhibition of neutrophilia	
CCCNC(=O)c1ccc(C)c(-c2nc(NCCNC)nc3c2ccc(=O)n3-c2c(F)cccc2F)c1 [56(d), 3-(8-(2,6-difluorophenyl)-2-{[2-(methylamino)ethyl]amino}-7-oxo-7,8-dihydropyrido[2,3-d]pyrimidin-4-yl)-4-methyl-N-propylbenzamide]		statistically significant inhibition of neutrophilia	
CCCNC(=O)c1ccc(C)c(-c2nc(NCCN(C)C)nc3c2ccc(=O)n3-c2c(F)cccc2F)c1 [Example 105, 3-(8-(2,6-difluorophenyl)-2-{[2-(dimethylamino)ethyl]amino}-7-oxo-7,8-dihydropyrido[2,3-d]pyrimidin-4-yl)-4-methyl-N-propylbenzamide]		statistically significant inhibition of neutrophilia	
CNCCNc1nc(-c2cc(C(=O)NC(C)C)ccc2C)c2ccc(=O)n(-c3c(F)cccc3F)c2n1 [Example 57, 3-(8-(2,6-difluorophenyl)-2-{[2-(methylamino)ethyl]amino}-7-oxo-7,8-dihydropyrido[2,3-d]pyrimidin-4-yl)-4-methyl-N-(1-methylethyl)benzamide]		statistically significant inhibition of neutrophilia	

Source: patent US8354416B2 (Glaxo Group Limited, priority 2005, dated 2013)
